From patent US20260274798A1, “PENTAMIDINE ANALOGUE POLYMORPHS, FORMULATIONS, AND METHODS THEREOF” (AURANSA INC., priority 2023, published 2026)
Entries after “also recorded” stand apart in the source; their conditions may differ.

Assays:
Type in all cases: physicochemical
[1] = Competitive slurry experiments of Forms 1, 3, 8 and 9
Experimental: Approximately 5 mg of Compound A diacetate salt Forms 1, 3, 8 and 9 were combined into 8×4 mL vials. The appropriate solvent was added to form a slurry and the samples were shaken at ambient or 60° C. for ca. 48 hours. The samples were then removed from shaking and centrifuge filtered. […] The solids were recovered from the XRPD plate and placed back on to shake as before for an additional 3 days before being re-analyzed by XRPD. […]

[2] = Approximate solvent solubility screen of Compound A diacetate salt in 18 solvent systems; details: thermodynamic from solid
Experimental: Approximately 380 mg of Form 1 was dissolved in 35 mL of methanol and rotary evaporated. […] A sub-sample was taken for further characterization (TG/DSC, ^1H NMR and PLM). The crystalline material isolated post rotary-evaporation was re-dissolved in 27 mL of water. The solution remained slightly turbid so was syringe filtered to give a clear solution which was split equally among 18 vials to give approximately 20 mg of material per vial. The samples were then frozen at −50° C. before being lyophilized for ca. 72 hours. […] This material was used as input for the solvent solubility screen described below.
The solubility of Compound A diacetate salt was tested in 18 solvent systems. The appropriate solvent was added in 100 μL aliquots to approximately 20 mg of the lyophilized Compound A diacetate salt. Between each addition, the mixture was checked for dissolution and where no dissolution was apparent, the mixture was heated to ca. 40° C. and checked again. This procedure was continued until dissolution was observed or until 100 volumes of solvent had been added.
The solids were then isolated via centrifugal filtration and analyzed by XRPD. If the samples fully dissolved on addition of solvent (methanol and water only), they were uncapped and left to evaporate at ambient. Any solids recovered post-evaporation were then analyzed by XRPD.

[3] = Thermodynamic solubility in water and a pH 7.4 phosphate buffer; details: slurry agitated at ambient ca. 24 hours, HPLC; for solubility: diacetate; for solubility at 24 h: thermodynamic from solid
Experimental: (§1) 25.6 mL of 2-propanol was added to the lyophilized Compound A diacetate salt to form a slurry. The slurry was then temperature cycled between ambient and 40° C. in 4 hour cycles with agitation for ca. 24 hours. The slurry was then filtered and the isolated solids collected into a scintillation vial. A subsample was analyzed by XRPD and the vial was left uncapped to allow the solids to […] at ambient for ca. 24 hours. The material was then re-analyzed by XRPD post-drying and fully characterized using the following techniques: TG/DSC, DSC, DVS with post-DVS XRPD analysis, PLM, FT-IR, ^1H NMR, Purity by HPLC, TG/DSC with post TG/DSC XRPD analysis, and 7 Day Stability Assessment (ca. 10 mg of the material was stored at 40° C./75% RH. 80° C. and ambient light and humidity for 1 week. The solids were then analyzed by XRPD and purity obtained by HPLC). Thermodynamic solubility in water and a pH 7.4 phosphate buffer (The appropriate media was added in 100 μL aliquots to ca. 20 mg of the material to form a slurry. The samples were then sealed and agitated at ambient for ca. 24 hours before being centrifuge filtered. The isolated solids were analyzed by XRPD and the concentration of the mother liquors determined by HPLC).
The material appears highly insoluble in the phosphate buffer with all Forms having a solubility of 0.3 mg/mL except from Form 2 which has a solubility of 0.2 mg/mL.

[4] = Dynamic vapour sorption (DVS) with post-DVS XRPD; details: for form of recovered solid by post-DVS XRPD: after DVS cycles; for form conversion during DVS / weight loss on form conversion during DVS: at 50% RH
Experimental: Approximately, 10-20 mg of sample was placed into a mesh vapour sorption balance pan and loaded into a DVS Intrinsic dynamic vapour sorption balance by Surface Measurement Systems. The sample was subjected to a ramping profile from 40-90% relative humidity (RH) at 10% increments, maintaining the sample at each step until a stable weight had been achieved (dm/dt 0.004%, minimum step length 30 minutes, maximum step length 500 minutes) at 25° C. After completion of the sorption cycle, the sample was dried using the same procedure to 0% RH and then a second sorption cycle back to 40% RH. Two cycles were performed. The weight change during the sorption/desorption cycles were plotted, allowing for the hygroscopic nature of the sample to be determined. XRPD analysis was then carried out on any solid retained.

[5] = 7 Day Stability Assessment (XRPD form and HPLC purity after storage); details: diacetate; for one-week stability: form by XRPD: 1 week (Form 1: 2 and 7 days)
Experimental: as §1

[6] = Ethyl Acetate, 2000 μL, Ambient
[7] = ambient temperature and humidity

CC(=O)O.CC(=O)O.N=C(N)c1ccc(OCCCCCOc2ccc(C(=N)N)nc2)cc1
XRPD Pattern (2 Days) ([1]; Acetone, 1000 μL, 60° C.): All patterns | XRPD Pattern (5 Days) ([1]; Acetone, 1000 μL, 60° C.): All patterns | XRPD Pattern (2 Days) ([1]; Acetone, 2000 μL, Ambient): All patterns | XRPD Pattern (5 Days) ([1]; Acetone, 2000 μL, Ambient): All patterns | XRPD Pattern (2 Days) ([1]; DCM, 1000 μL, 60° C.): All patterns | XRPD Pattern (5 Days) ([1]; DCM, 1000 μL, 60° C.): All patterns | XRPD Pattern (2 Days) ([1]; DCM, 2000 μL, Ambient): All patterns | XRPD Pattern (5 Days) ([1]; DCM, 2000 μL, Ambient): All patterns | XRPD Pattern (2 Days) ([1]; Ethanol, 1000 μL, 60° C.): 8 + 1 | XRPD Pattern (2 Days) ([1]; Ethanol, 2000 μL, Ambient): 8 + 1 | XRPD Pattern (5 Days) ([1]; Ethanol, 2000 μL, Ambient): 6 | XRPD Pattern (2 Days) [1, 6]: All patterns | XRPD Pattern (5 Days) [1, 6]: All patterns | XRPD Pattern (2 Days) ([1]; Etyl Acetate, 1000 μL, 60° C.): All patterns | XRPD Pattern (5 Days) ([1]; Etyl Acetate, 1000 μL, 60° C.): 1 + 8

CC(=O)O.CC(=O)O.N=C(N)c1ccc(OCCCCCOc2ccc(C(=N)N)nc2)cc1 [Compound A diacetate salt, 5-((5-(4-carbamimidoylphenoxy)pentyl)oxy)picolinimidamide diacetate]
solubility ([2]; all solvents investigated except methanol and water, organic solvent or mixture, read-out: solubility): < 5000 µg/mL | solubility ([2]; organic solvent or mixture, 1,4-Dioxane, lyophilized material, ambient to ca. 40° C., read-out: Approximate Solvent Solubility): ≤ 5000 µg/mL | solubility ([2]; organic solvent or mixture, 2-Propanol, lyophilized material, ambient to ca. 40° C., read-out: Approximate Solvent Solubility): ≤ 5000 µg/mL | solubility ([2]; organic solvent or mixture, 2-methyl THF, lyophilized material, ambient to ca. 40° C., read-out: Approximate Solvent Solubility): ≤ 5000 µg/mL | solubility ([2]; organic solvent or mixture, Acetone, lyophilized material, ambient to ca. 40° C., read-out: Approximate Solvent Solubility): ≤ 5000 µg/mL | solubility ([2]; organic solvent or mixture, Acetonitrile, lyophilized material, ambient to ca. 40° C., read-out: Approximate Solvent Solubility): ≤ 5000 µg/mL | solubility ([2]; organic solvent or mixture, Dichloromethane, lyophilized material, ambient to ca. 40° C., read-out: Approximate Solvent Solubility): ≤ 5000 µg/mL | solubility ([2]; organic solvent or mixture, Dimethylsulfoxide, lyophilized material, ambient to ca. 40° C., read-out: Approximate Solvent Solubility): ≤ 5000 µg/mL | solubility ([2]; organic solvent or mixture, Ethanol, lyophilized material, ambient to ca. 40° C., read-out: Approximate Solvent Solubility): ≤ 5000 µg/mL | solubility ([2]; organic solvent or mixture, Ethyl Acetate, lyophilized material, ambient to ca. 40° C., read-out: Approximate Solvent Solubility): ≤ 5000 µg/mL | solubility ([2]; organic solvent or mixture, Isopropyl Acetate, lyophilized material, ambient to ca. 40° C., read-out: Approximate Solvent Solubility): ≤ 5000 µg/mL | solubility ([2]; organic solvent or mixture, Methanol, lyophilized material, ambient to ca. 40° C., read-out: Approximate Solvent Solubility): 20000 µg/mL | solubility ([2]; organic solvent or mixture, Methylethyl Ketone, lyophilized material, ambient to ca. 40° C., read-out: Approximate Solvent Solubility): ≤ 5000 µg/mL | solubility ([2]; organic solvent or mixture, N,N′-Dimethylacetamide, lyophilized material, ambient to ca. 40° C., read-out: Approximate Solvent Solubility): ≤ 5000 µg/mL | solubility ([2]; organic solvent or mixture, N,N′-Dimethylformamide, lyophilized material, ambient to ca. 40° C., read-out: Approximate Solvent Solubility): ≤ 5000 µg/mL | solubility ([2]; organic solvent or mixture, N-Methylpyrrolidone, lyophilized material, ambient to ca. 40° C., read-out: Approximate Solvent Solubility): ≤ 5000 µg/mL | solubility ([2]; organic solvent or mixture, Tetrahydrofuran, lyophilized material, ambient to ca. 40° C., read-out: Approximate Solvent Solubility): ≤ 5000 µg/mL | solubility ([2]; organic solvent or mixture, Toluene, lyophilized material, ambient to ca. 40° C., read-out: Approximate Solvent Solubility): ≤ 5000 µg/mL | solubility ([2]; Water, lyophilized material, ambient to ca. 40° C., read-out: Approximate Solvent Solubility): 50000 µg/mL

CC(=O)O.CC(=O)O.N=C(N)c1ccc(OCCCCCOc2ccc(C(=N)N)nc2)cc1 [Form 1, 5-((5-(4-carbamimidoylphenoxy)pentyl)oxy)picolinimidamide diacetate]
solubility ([3]; pH 7.4 Phosphate Buffer): 300 µg/mL | solubility at 24 h ([3]; water): 49500 µg/mL | hygroscopicity by DVS ([4]; DVS, 25° C., diacetate): slightly hygroscopic | DVS: form post-DVS ([4]; XRPD post-DVS): water) at 90% RH. No change | form of recovered solid by post-DVS XRPD ([4]; 25° C., diacetate): remained as the received pattern 1; also recorded: No change in form | DVS ([4]; hygroscopicity / form change during DVS cycle, diacetate): Slightly hygroscopic | one-week stability: form by XRPD ([5]; 40° C./75% RH): no change in form | one-week stability: form by XRPD ([5]; 80° C.): no change in form | one-week stability: form by XRPD [5, 7]: no change in form | 1 Week Stability ([5]; form by XRPD after storage at 40° C./75% RH, ambient or 80° C.): No change in form by XRPD

CC(=O)O.CC(=O)O.N=C(N)c1ccc(OCCCCCOc2ccc(C(=N)N)nc2)cc1 [Form 2, 5-((5-(4-carbamimidoylphenoxy)pentyl)oxy)picolinimidamide diacetate]
solubility at 24 h ([3]; phosphate buffer, pH 7.4, aqueous buffer, pH 7.4 Phosphate Buffer): 200 µg/mL

CC(=O)O.CC(=O)O.N=C(N)c1ccc(OCCCCCOc2ccc(C(=N)N)nc2)cc1 [Form 3, 5-((5-(4-carbamimidoylphenoxy)pentyl)oxy)picolinimidamide diacetate]
solubility ([3]; Water): 38500 µg/mL | solubility ([3]; pH 7.4 Phosphate Buffer): 200 µg/mL | form of recovered solid by post-DVS XRPD ([4]; 25° C., diacetate): conversion to Form 9 | form conversion during DVS ([4]; 25° C., diacetate): convert to the hydrated Form 9; also recorded: convert to Form 9 (dihydrate) | weight loss on form conversion during DVS ([4]; 25° C., diacetate): approximately 4 wt. % | one-week stability: form by XRPD ([5]; 40° C./75% RH): convert to Form 1 | one-week stability: form by XRPD ([5]; 80° C.): no change | one-week stability: form by XRPD [5, 7]: convert to Form 1

CC(=O)O.CC(=O)O.N=C(N)c1ccc(OCCCCCOc2ccc(C(=N)N)nc2)cc1 [Form 8, 5-((5-(4-carbamimidoylphenoxy)pentyl)oxy)picolinimidamide diacetate]
solubility ([3]; Water): 38700 µg/mL | solubility ([3]; pH 7.4 Phosphate Buffer): 300 µg/mL | form of recovered solid by post-DVS XRPD ([4]; 25° C., diacetate): conversion of Form 8 to Form 1 | form conversion during DVS ([4]; 25° C., diacetate): desolvate and convert to Form 1 | weight loss on form conversion during DVS ([4]; 25° C., diacetate): 8.2 wt. % | DVS mass increase ([4]; at 90% RH, diacetate): hygroscopic with a 1.6% mass | one-week stability: form by XRPD ([5]; 40° C./75% RH): convert to Form 1 | one-week stability: form by XRPD ([5]; 80° C.): no change in form | one-week stability: form by XRPD [5, 7]: convert to Form 1; also recorded: partial conversion to Form 1
